Active and inactive are the calls of the source. The rule behind the calls is not given here.
Tests used:
A498 = test: Compound was tested for growth inhibitory activity against A498 cell line; format: functional; conditions: Homo sapiens
BT-549 = test: Compound was tested for growth inhibitory activity against BT-549 cell line; format: functional; conditions: Homo sapiens
PC-3 = test: Compound was tested for growth inhibitory activity against PC-3 cell line; format: functional; conditions: Homo sapiens
OVCAR-8 = test: Compound was tested for growth inhibitory activity against OVCAR-8 cell line; format: functional; conditions: Homo sapiens
RXF 393 = test: Compound was tested for growth inhibitory activity against RXF 393 cell line; format: functional; conditions: Homo sapiens
HL-60 = test: Compound was tested for growth inhibitory activity against HL-60 cell line; format: functional; conditions: Homo sapiens
KM12 = test: Compound was tested for growth inhibitory activity against KM12 cell line; format: functional; conditions: Homo sapiens
COLO 205 = test: Compound was tested for growth inhibitory activity against COLO 205 cell line; format: functional; conditions: Homo sapiens
MDA-MB-435 = test: Compound was tested for growth inhibitory activity against MDA-MB-435 cell line; format: functional; conditions: Homo sapiens
SK-OV-3 = test: Compound was tested for growth inhibitory activity against SK-OV-3 cell line; format: functional; conditions: Homo sapiens
SF-295 = test: Compound was tested for growth inhibitory activity against SF-295 cell line; format: functional; conditions: Homo sapiens
MCF7 = test: Compound was tested for growth inhibitory activity against MCF-7 cell line; format: functional; conditions: Homo sapiens
UACC-62 = test: Compound was tested for growth inhibitory activity against UACC-62 cell line; format: functional; conditions: Homo sapiens
Hs-578T = test: Compound was tested for growth inhibitory activity against HS 578T cell line; format: functional; conditions: Homo sapiens
HCC 2998 = test: Compound was tested for growth inhibitory activity against HCC2998 cell line; format: functional; conditions: Homo sapiens
MOLT-4 = test: Compound was tested for growth inhibitory activity against MOLT-4 cell line; format: functional; conditions: Homo sapiens
SK-MEL-5 = test: Compound was tested for growth inhibitory activity against SK-MEL-5 cell line; format: functional; conditions: Homo sapiens
NCI-H522 = test: Compound was tested for growth inhibitory activity against NCI-H522 cell line; format: functional; conditions: Homo sapiens
SF-539 = test: Compound was tested for growth inhibitory activity against SF-539 cell line; format: functional; conditions: Homo sapiens
SF-268 = test: Compound was tested for growth inhibitory activity against SF-268 cell line; format: functional; conditions: Homo sapiens
HCT-15 = test: Compound was tested for growth inhibitory activity against HCT-15 cell line; format: functional; conditions: Homo sapiens
UO-31 = test: Compound was tested for growth inhibitory activity against UO-31 cell line; format: functional; conditions: Homo sapiens
SK-MEL-2 [1] = test: Compound was tested for growth inhibitory activity against SK-MEL-2 cell line; format: functional; conditions: Homo sapiens
SNB-19 = test: Compound was tested for growth inhibitory activity against SNB-19 cell line; format: functional; conditions: Homo sapiens
U-251 = test: Compound was tested for growth inhibitory activity against U251 cell line; format: functional; conditions: Homo sapiens
786-0 = test: Compound was tested for growth inhibitory activity against 786-0 cell line; format: functional; conditions: Homo sapiens
NCI/ADR-RES = test: Compound was tested for growth inhibitory activity against MCF-7/ADR cell line; format: functional; conditions: Homo sapiens
SR = test: Compound was tested for growth inhibitory activity against SR cell line; format: functional; conditions: Homo sapiens
HOP-62 = test: Compound was tested for growth inhibitory activity against HOP-62 cell line; format: functional; conditions: Homo sapiens
OVCAR-3 = test: Compound was tested for growth inhibitory activity against OVCAR-3 cell line; format: functional; conditions: Homo sapiens
HT-29 = test: Compound was tested for growth inhibitory activity against HT-29 cell line; format: functional; conditions: Homo sapiens
NCI-H226 = test: Compound was tested for growth inhibitory activity against NCI-H226 cell line; format: functional; conditions: Homo sapiens
M14 = test: Compound was tested for growth inhibitory activity against M14 cell line; format: functional; conditions: Homo sapiens
SK-MEL-2 [2] = test: Compound was tested for growth inhibitory activity against SK-MEL-2; format: functional; conditions: Homo sapiens
[3] = molecular target: Tubulin beta chain (Bos taurus) (UniProt Q6B856); test: Effect on microtubule stabilization isolated from bovine brain
[4] = molecular target: Tubulin beta chain (Bos taurus) (UniProt Q6B856); test: Compound was tested for its effect on microtubule stabilization isolated from bovine brain; compound was inactive
[5] = molecular target: Tubulin beta chain (Bos taurus) (UniProt Q6B856); test: Compound was tested for its effect on microtubule stabilization isolated from bovine brain; not significant
[6] = molecular target: Tubulin beta chain (Bos taurus) (UniProt Q6B856); test: Compound was tested for its effect on microtubule stabilization isolated from bovine brain; NS: not significant

Sequence of Tubulin beta chain (Bos taurus) (Q6B856 whole entry): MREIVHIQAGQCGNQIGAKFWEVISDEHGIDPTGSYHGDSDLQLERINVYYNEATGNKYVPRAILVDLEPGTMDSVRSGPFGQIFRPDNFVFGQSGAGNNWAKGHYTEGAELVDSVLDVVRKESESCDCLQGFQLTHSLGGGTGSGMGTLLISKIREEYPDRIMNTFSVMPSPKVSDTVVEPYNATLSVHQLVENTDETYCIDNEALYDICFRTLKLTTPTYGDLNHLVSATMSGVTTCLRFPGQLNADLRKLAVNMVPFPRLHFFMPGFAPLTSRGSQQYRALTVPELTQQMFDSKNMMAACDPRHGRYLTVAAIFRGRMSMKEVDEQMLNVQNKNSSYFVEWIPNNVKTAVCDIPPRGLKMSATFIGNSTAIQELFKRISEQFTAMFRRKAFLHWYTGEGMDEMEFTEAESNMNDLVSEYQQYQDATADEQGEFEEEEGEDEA

CC(=O)O[C@H]1C(=O)[C@@]2(C)[C@H]([C@H](OC(=O)c3ccccc3)[C@]3(O)C[C@H](OC(=O)[C@H](O)[C@@H](NC(=O)c4ccccc4)c4ccccc4)C(C)=C1C3(C)C)[C@]1(OC(C)=O)CO[C@@H]1C[C@@H]2O [PACLITAXEL]
GI50 (A498): 0.0794 µM | GI50 (BT-549): 0.00631 µM | GI50 (PC-3): 0.00398 µM | GI50 (OVCAR-8): 0.00501 µM | GI50 (RXF 393): 0.00794 µM | GI50 (HL-60): 0.00501 µM | GI50 (KM12): 0.00316 µM | GI50 (COLO 205): 0.00316 µM | GI50 (MDA-MB-435): 0.00251 µM | GI50 (SK-OV-3): 0.01 µM | GI50 (SF-295): 0.0158 µM | GI50 (MCF7): 0.00316 µM | GI50 (UACC-62): 0.00398 µM | GI50 (Hs-578T): 0.00316 µM | GI50 (HCC 2998): 0.00398 µM | GI50 (MOLT-4): 0.00398 µM | GI50 (SK-MEL-5): 0.00398 µM | GI50 (NCI-H522): 0.00316 µM | GI50 (SF-539): 0.00316 µM | GI50 (SF-268): 0.00794 µM | GI50 (HCT-15): 0.2 µM | GI50 (UO-31): 1 µM | GI50 (SK-MEL-2 [1]): 0.00501 µM | GI50 (SNB-19): 0.01 µM | GI50 (U-251): 0.00398 µM | GI50 (786-0): 0.0199 µM | GI50 (NCI/ADR-RES): 3.16 µM | GI50 (SR): 0.00251 µM | GI50 (HOP-62): 0.0158 µM | GI50 (OVCAR-3): 0.00316 µM | GI50 (HT-29): 0.00251 µM | GI50 (NCI-H226): 0.0316 µM | GI50 (M14): 0.01 µM

COC(=O)N[C@@H](c1ccncc1)[C@@H](O)C(=O)OC1CC2C(C)(C)C1(C)[C@@]13CC(C)c4ccccc4[C@@]21O3 (stereo not given in full)
GI50 (A498): 12.3 µM | GI50 (BT-549): 22.9 µM | GI50 (PC-3): 3.02 µM | GI50 (SK-MEL-2 [2]): 2.57 µM | GI50 (OVCAR-8): 2.45 µM | GI50 (RXF 393): 4.57 µM | GI50 (HL-60): 0.871 µM | GI50 (KM12): 0.933 µM | GI50 (COLO 205): 1.86 µM | GI50 (MDA-MB-435): 0.589 µM | Relative stability [3]: -5% | GI50 (SK-OV-3): 1.91 µM | GI50 (SF-295): 2.09 µM | GI50 (MCF7): 2.82 µM | GI50 (UACC-62): 2.63 µM | GI50 (Hs-578T): 1.48 µM | GI50 (HCC 2998): 0.525 µM | GI50 (MOLT-4): 4.68 µM | GI50 (SK-MEL-5): 2.34 µM | GI50 (NCI-H522): 0.813 µM | GI50 (SF-539): 4.68 µM | GI50 (SF-268): 3.8 µM | GI50 (HCT-15): 0.977 µM | GI50 (UO-31): 0.562 µM | GI50 (SNB-19): 2.19 µM | GI50 (U-251): 3.98 µM | GI50 (786-0): 2.75 µM | GI50 (NCI/ADR-RES): 1.91 µM | GI50 (SR): 1.45 µM | GI50 (HOP-62): 6.17 µM | GI50 (OVCAR-3): 1.86 µM | GI50 (HT-29): 0.447 µM | GI50 (NCI-H226): 0.977 µM | GI50 (M14): 1.74 µM

C[C@@H]1C[C@@]23O[C@]2(c2ccccc21)C1CC(OC(=O)[C@H](O)[C@@H](NC(=O)OC(C)(C)C)c2ccccc2)C3(C)C1(C)C (stereo not given in full)
Relative stability [4]: inactive

C=C1C[C@@]23O[C@]2(c2ccccc21)C1CC(OC(=O)[C@H](O)[C@@H](NC(=O)CC(C)(C)C)c2ccccc2)C3(C)C1(C)C (stereo not given in full)
Relative stability [5]: inactive

CCOC(=O)N[C@@H](c1ccsc1)[C@@H](O)C(=O)OC1CC2C(C)(C)C1(C)[C@@]13C[C@](O)(COC(C)=O)c4ccccc4[C@@]21O3 (stereo not given in full)
Relative stability [6]: inactive
